Laboratory results: ChEMBL document CHEMBL6083260, “Dizocilpine derivatives as neuroprotective NMDA receptor antagonists without psychomimetic side effects” (Eur J Med Chem, 2024)
The source made the active and inactive calls. The calls are words filed in the database; no cut-off is given here.

Assays:
[1] = molecular target: T1, Glutamate NMDA receptor; GRIN1/GRIN2A (Homo sapiens, UniProt Q05586+Q12879); assay: Antagonist activity at human GluN1/GluN2A receptor expressed in HEK293 cells assessed as inhibition of L-glutamate induced response at 3 uM at -60 mV membrane potential by patch clamp electrophysiology analysis; type: cell-based
[2] = molecular target: T2, Glutamate NMDA receptor; GRIN1/GRIN2B (Homo sapiens, UniProt Q05586+Q13224); assay: Antagonist activity at human GluN1/GluN2B receptor expressed in HEK293 cells assessed as inhibition of L-glutamate induced response at 3 uM at -60 mV membrane potential by patch clamp electrophysiology analysis; type: cell-based
[3] = Cytotoxicity against CHO-K1 cells assessed as reduction in cell viability incubated for 24 hrs by MTT assay; type: toxicity, cell-based; settings: Chinese hamster (Cricetulus griseus)
[4] = Inhibition of human recombinant AChE measured by Ellman's method
[5] = molecular target: T1, Glutamate NMDA receptor; GRIN1/GRIN2A; assay: Antagonist activity at human GluN1/GluN2A receptor expressed in HEK293 cells assessed as inhibition of L-glutamate induced response at -40 mV membrane potential by patch clamp electrophysiology analysis; type: cell-based
[6] = molecular target: T2, Glutamate NMDA receptor; GRIN1/GRIN2B; assay: Antagonist activity at human GluN1/GluN2B receptor expressed in HEK293 cells assessed as inhibition of L-glutamate induced response at -40 mV membrane potential by patch clamp electrophysiology analysis; type: cell-based
[7] = molecular target: T1, Glutamate NMDA receptor; GRIN1/GRIN2A; assay: Antagonist activity at human GluN1/GluN2A receptor expressed in HEK293 cells assessed as inhibition of offset time constant at -60 mV membrane potential by patch clamp electrophysiology analysis relative to control; type: cell-based; settings: filed as antagonist, dose 1.0 µM
[8] = molecular target: T1, Glutamate NMDA receptor; GRIN1/GRIN2A; assay: Antagonist activity at human GluN1/GluN2A receptor expressed in HEK293 cells assessed as inhibition of […] response at 1 uM onset measured by patch clamp electrophysiology analysis; type: cell-based; settings: filed as antagonist
[9] = Toxicity in male Wistar rat assessed as no observed adverse effect level (NOAEL) at 10 mg/kg, ip; type: organism-based; settings: in vivo
[10] = Toxicity in male Wistar rat assessed as decrease respiration at 20 mg/kg, ip; type: organism-based; settings: in vivo
[11] = Toxicity in male Wistar rat assessed as loss of activity at 20 mg/kg, ip; type: organism-based; settings: in vivo
[12] = Toxicity in male Wistar rat assessed as locomotion at 1 to 10 mg/kg, ip incubated for 15 min by open field test; type: organism-based; settings: in vivo, 0.25 h, dose 1-10 mg/kg
[13] = Toxicity in male Wistar rat assessed as effect on pre-pulse inhibition of acoustic startle response induced deficit at 1 to 10 mg/kg, ip by prepulse inhibition test; type: organism-based; settings: in vivo, dose 1-10 mg/kg
Rattus norvegicus = assay: In vivo neuroprotective activity in NMDA-induced hippocampal lesion male Wistar rat model assessed as decrease in damage score at 30 uM; type: functional, organism-based
[14] = molecular target: T1, Glutamate NMDA receptor; GRIN1/GRIN2A; assay: (§1) Antagonist activity at human GluN1/GluN2A receptor expressed in HEK293 cells assessed as inhibition of L-glutamate/glycine-induced steady state conditions of the current response at holding - 60 mV potential by measuring onset time constant at 1 to 100 uM incubated for 2 min followed by compound washout measured by patch clamp electrophysiology analysis; type: cell-based; settings: filed as antagonist, dose 1-100 µM
[15] = molecular target: T2, Glutamate NMDA receptor; GRIN1/GRIN2B; assay: as §1, with “GluN1/GluN2B” for “GluN1/GluN2A”; type: cell-based; settings: filed as antagonist, dose 1-100 µM
[16] = molecular target: T1, Glutamate NMDA receptor; GRIN1/GRIN2A; assay: Antagonist activity at human GluN1/GluN2A receptor expressed in HEK293 cells assessed as inhibition of L-glutamate induced response at -60 mV membrane potential by patch clamp electrophysiology analysis; type: cell-based
[17] = molecular target: T2, Glutamate NMDA receptor; GRIN1/GRIN2B; assay: Antagonist activity at human GluN1/GluN2B receptor expressed in HEK293 cells assessed as inhibition of L-glutamate induced response at -60 mV membrane potential by patch clamp electrophysiology analysis; type: cell-based
[18] = Toxicity in male Wistar rat assessed as hyperlocomotion at 0.2 mg/kg, ip incubated for 10 min by open field test; type: organism-based; settings: in vivo
[19] = Toxicity in male Wistar rat assessed as effect on pre-pulse inhibition of acoustic startle response induced deficit at 0.3 mg/kg, ip mg/kg by prepulse inhibition test; type: organism-based; settings: in vivo
[20] = molecular target: T1, Glutamate NMDA receptor; GRIN1/GRIN2A; assay: as §1, with “offset” for “onset”; type: cell-based; settings: filed as antagonist, dose 1-100 µM
[21] = molecular target: T2, Glutamate NMDA receptor; GRIN1/GRIN2B; assay: as §1, with “GluN1/GluN2B” for “GluN1/GluN2A”, “offset” for “onset”; type: cell-based; settings: filed as antagonist, dose 1-100 µM

Row | SMILES | inhibition [1] | inhibition ([2]; filed as antagonist) | IC50 at 24 h [3] | inhibition ([1]; filed as antagonist) | further results
1 | CCNC1c2ccccc2C=Cc2ccccc21 | 39.9% | 59.9% | 498 µM |  | 
2 | OCCNC1c2ccccc2C=Cc2ccccc21 | 38.2% | 48.8% | 333 µM |  | 
3 | COCCNC1c2ccccc2CCc2ccccc21 | 34.9% | 66.6% | 385 µM |  | 
4 | COCCNC1c2ccccc2C=Cc2ccccc21 | 35.6% | 60% | 390 µM |  | 
5 | c1ccc2c(c1)CCc1ccccc1C2NC1CCCCC1 |  | 86% | 85 µM | 79.4% | IC50 [4]: 14.4 µM
6 | C1=Cc2ccccc2C(N2CCCCC2)c2ccccc21 | 29.9% | 58.4% | 381 µM |  | 
7 | CC(C)CNC1c2ccccc2CCc2ccccc21 |  | 91.6% | 92.4 µM | 76.8% | 
8 | CN1CCN(C2c3ccccc3CCc3ccccc32)CC1 | 9.7% |  | 122 µM |  | inhibition [2]: 9.49%
9 | CCN(CC)C1c2ccccc2CCc2ccccc21 |  | 75% | 86.4 µM | 68.4% | 
10 | CCNC1c2ccccc2CCc2ccccc21 | 34% | 51.8% | 364 µM |  | 
11 | c1ccc2c(c1)CCc1ccccc1C2N1CCOCC1 | 6.78% |  | 95.2 µM |  | inhibition [2]: 3.43%
12 | CC(C)NC1c2ccccc2CCc2ccccc21 |  | 76.9% | 263 µM | 52.2% | 
13 | Cl.OCCNC1c2ccccc2CCc2ccccc21 |  | 49.7% | 720 µM | 48% | IC50 [5]: 276 µM; IC50 [6]: 215 µM; inhibition [7]: 99%; TIME [8]: 0.000112 h; Activity [9]: Non-toxic; Activity [10]: Toxic; Activity [11]: Toxic; Activity [12]: Non-toxic; Activity [13]: Toxic; Activity (Rattus norvegicus): Active; Activity [14]: Active; Activity [15]: Active
14 | C1=Cc2ccccc2C(NC2CCCCC2)c2ccccc21 |  | 92.4% | 81.3 µM | 92.1% | IC50 [4]: 8.5 µM
15 | CNC1c2ccccc2C=Cc2ccccc21 |  | 68.9% | 299 µM | 54.3% | 
16 | CNC1(c2ccccc2Cl)CCCCC1=O (stereo not drawn) [KETAMINE] |  |  |  |  | IC50 [16]: 0.5 µM; IC50 [17]: 0.51 µM; IC50 [5]: 53.3 µM; IC50 [6]: 15.2 µM
17 | c1ccc2c(c1)CCc1ccccc1C2NC1CC1 |  | 53.6% | 177 µM | 40.1% | 
18 | CCN1CCN(C2c3ccccc3CCc3ccccc32)CC1 | 7.64% |  | 147 µM |  | inhibition [2]: 5.22%
19 | CCCCNC1c2ccccc2C=Cc2ccccc21 |  | 79.2% | 101 µM | 81.1% | 
20 | c1ccc2c(c1)CCc1ccccc1C2N1CCCC1 |  | 62.1% | 97.7 µM | 49.8% | 
21 | CCCCNC1c2ccccc2CCc2ccccc21 |  | 85.8% | 128 µM | 76.4% | 
22 | CC(C)NC1c2ccccc2C=Cc2ccccc21 |  | 76% | 251 µM | 75.6% | 
23 | CNC1c2ccccc2CCc2ccccc21 |  | 71% | 410 µM | 82.3% | 
24 | C1=Cc2ccccc2C(NC2CC2)c2ccccc21 |  | 57.2% | 260 µM | 45% | 
25 | C[C@]12N[C@H](Cc3ccccc31)c1ccccc12 [DIZOCILPINE] |  |  |  |  | Activity [18]: Toxic; Activity [19]: Toxic
26 | c1ccc2c(c1)CCc1ccccc1C2N1CCCCC1 | 5.4% |  | 73.8 µM |  | inhibition [2]: 5.2%
27 | C1=Cc2ccccc2C(N2CCOCC2)c2ccccc21 | 31.9% | 57.6% | 165 µM |  | 
28 | C1=Cc2ccccc2C(N2CCCC2)c2ccccc21 |  | 85.5% | > 900 µM | 48.6% | 
29 | CC(C)CNC1c2ccccc2C=Cc2ccccc21.Cl |  | 91.8% | 102 µM | 93.2% | IC50 [5]: 22.4 µM; IC50 [6]: 11.7 µM; inhibition [7]: 99%; Activity [9]: Non-toxic; Activity [10]: Toxic; Activity [11]: Toxic; Activity [12]: Non-toxic; Activity [13]: Toxic; Activity [20]: Active; Compound Exhibited Slower Time Constant Offset Than 3L; Activity [21]: Active; Compound Exhibited Slower Time Constant Offset Than 3L; Activity [14]: Active; Activity [15]: Active
